Legend:
hD2LR = hD2LR (Homo sapiens, UniProt P14416); assay: Displacement of 125I-IABN in HEK 293 cells transfected with hD2LR; type: binding; conditions: for decrease in binding at D2R compared to the piperidinol (unbridged) analogue: comparator from ref 28
hD3R = hD3R (Homo sapiens, UniProt P35462); assay: Displacement of 125I-IABN in HEK 293 cells transfected with hD3R; type: binding; conditions: vs 1
D2R = D2R (Homo sapiens, UniProt P14416); assay: Functional assay at D2R; type: cell-based
D3R = D3R (Homo sapiens, UniProt P35462); assay: Functional assay at D3R; type: cell-based
Chain of D3R (P35462 whole entry): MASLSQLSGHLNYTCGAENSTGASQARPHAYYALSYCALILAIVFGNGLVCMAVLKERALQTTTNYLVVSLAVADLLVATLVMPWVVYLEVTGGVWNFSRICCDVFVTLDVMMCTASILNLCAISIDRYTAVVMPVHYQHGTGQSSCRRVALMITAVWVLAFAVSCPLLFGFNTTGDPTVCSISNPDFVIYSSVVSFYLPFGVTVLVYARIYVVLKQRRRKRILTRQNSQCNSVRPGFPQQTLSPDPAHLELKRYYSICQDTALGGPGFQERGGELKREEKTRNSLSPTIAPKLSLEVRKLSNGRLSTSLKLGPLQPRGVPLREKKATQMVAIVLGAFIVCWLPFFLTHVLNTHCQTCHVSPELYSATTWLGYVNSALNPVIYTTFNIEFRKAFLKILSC

Chain of hD2LR (P14416 whole entry): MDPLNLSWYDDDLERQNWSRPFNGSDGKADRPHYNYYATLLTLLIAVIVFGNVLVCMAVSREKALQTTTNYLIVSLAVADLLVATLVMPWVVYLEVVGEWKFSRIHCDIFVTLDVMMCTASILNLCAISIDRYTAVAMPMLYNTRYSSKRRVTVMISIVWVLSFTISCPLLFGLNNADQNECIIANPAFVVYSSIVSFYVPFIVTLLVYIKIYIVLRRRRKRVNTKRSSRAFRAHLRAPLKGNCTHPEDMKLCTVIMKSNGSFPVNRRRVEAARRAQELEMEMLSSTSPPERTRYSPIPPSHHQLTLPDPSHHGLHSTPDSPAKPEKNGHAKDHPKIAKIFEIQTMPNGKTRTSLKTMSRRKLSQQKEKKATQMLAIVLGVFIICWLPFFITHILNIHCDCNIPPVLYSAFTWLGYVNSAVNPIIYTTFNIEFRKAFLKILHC
Chain of D2R (P14416 whole entry): as above
Chain of hD3R (P35462 whole entry): as the sequence (P35462 whole entry) above

Compound	functional efficacy at D2R (D2R)	functional efficacy at D3R (D3R)	decrease in binding at D2R compared to the piperidinol (unbridged) analogue (hD2LR)	also measured
OC1(c2ccc(Cl)c(Cl)c2)CCN(Cc2c[nH]c3ccccc23)CC1 [Compound 2, reference compound]	–	–	–	selectivity for the D2 receptor subtype (hD2LR; D2R over D3R): more than 10 fold
O[C@]1(c2ccc(Cl)cc2)C[C@H]2CC[C@@H](C1)N2Cc1c[nH]c2ccccc12 [Compound 31, endo-8-(1H-Indol-3-ylmethyl)-3-(4-chlorophenyl)-8-azabicyclo-[3.2.1]octan-3-ol]	antagonists	antagonists	–	decrease in affinity at D2R compared to 1 (hD2LR; vs 1): 3 fold; increase in D3R binding affinity compared to the parent ligand 1 (hD3R): 10 fold
O[C@@]1(c2ccc(Cl)c(Cl)c2)C[C@H]2CC[C@@H](C1)N2Cc1c[nH]c2ccccc12 [Compound 32, endo-8-(1H-Indol-3-ylmethyl)-3-(3,4-dichlorophenyl)-8-azabicyclo[3.2.1]octan-3-ol]	–	antagonists	–	–
CSc1ccc([C@]2(O)C[C@H]3CC[C@@H](C2)N3Cc2c[nH]c3ccccc23)cc1 [Compound 37, endo-8-(1H-Indol-3-ylmethyl)-3-(4-(methylthio)phenyl)-8-azabicyclo[3.2.1]octan-3-ol]	–	–	24 fold	–
COc1ccc2[nH]cc(CN3[C@@H]4CC[C@H]3C[C@](O)(c3ccc(SC)cc3)C4)c2c1 [Compound 40, endo-8-(5-Methoxy-1H-indol-3-ylmethyl)-3-(4-methylthiophenyl)-8-azabicyclo[3.2.1]octan-3-ol]	–	–	100 fold	–
O[C@@]1(c2ccc(Cl)cc2)C[C@H]2CC[C@@H](C1)N2Cc1csc2ccccc12 [Compound 41, endo-8-(Benzothien-3-ylmethyl)-3-(4-chlorophenyl)-8-azabicyclo[3.2.1]octan-3-ol]	antagonists	antagonists	–	–

— article PMC3157365 (Journal of medicinal chemistry, 2008)
